# Laboratory results: PMC7618104, “The GLP-1 analogue, exendin-4, improves bone material properties and strength through a central relay in ovariectomized mice” (American journal of physiology. Endocrinology and metabolism, 2025)
# How the values were obtained:
# [1] = system: splenocytes isolated from BALB/c ovariectomized (OVX) mice; assay: Osteoclast differentiation assay (TRAP staining); type: cell-based, mouse (BALB/cJRj); conditions: 10 nM Exendin-4, M-CSF + RANKL, 7 days
# Procedure: To investigate the potential effect of Exendin-4 (Ex-4) on osteoclast differentiation, we used splenocytes isolated from BALB/c ovariectomized (OVX) mice (BALB/cJRj; Janvier Labs, Saint-Berthevin, France). Mice were ovariectomized at 12 weeks of age, and splenocytes were isolated 4 weeks post-ovariectomy. The splenocytes were cultured in osteoclast differentiation medium (α-MEM supplemented with 10% FBS, 100 U/mL penicillin/streptomycin, 50 ng/mL macrophage colony-stimulating factor (M-CSF, Bio-Techne, Noyal-Chatillon-sur-Seiche, France), and 30 ng/mL receptor activator of NF-κB ligand (RANKL, Bio-Techne) in the presence or absence of 10 nM Exendin-4. D-Ala2-GIP at a concentration of 10 nM was used as positive controls, as previously reported ([39]). Cells were cultured for 7 days, with media changes every 2 days. Osteoclast differentiation was evaluated by TRAP staining, as previously described ([39]).
# Supplementary Figure S4 – Effect of Exendin-4 on osteoclast differentiation in vitro. Splenocytes were isolated from BALB/c ovariectomized (OVX) mice at 12 weeks of age, 4 weeks post-ovariectomy, and cultured in osteoclast differentiation medium containing M-CSF and RANKL, with or without 10 nM Exendin-4. Cells were cultured for 7 days, and osteoclast differentiation was assessed by TRAP staining.
# D-Ala2-GIP was used at 10 nM and served as positive controls. […]
# [2] = system: ovariectomized BALB/c mice; assay: 3-point bending of femur (whole-bone strength), ovariectomy-induced bone fragility model; type: in vivo, mouse (BALB/cJRj, female); conditions: 28 days, n=8
# Procedure: (§1) Eight animals were randomly assigned to each group.
# (§2) All animals received intraperitoneal administration of calcein green (10 mg/kg) 10 days and 2 days before sacrifice. Animals were housed in social groups and maintained in a 12 h:12 h light/dark cycle. They had free access to water and food. At necropsy, blood was collected by intracardiac aspiration into EDTA-treated tubes. Blood samples were centrifuged at 13,000 g for 15 min, aliquoted and stored at -80°C until plasma levels of exendin-4 (#EK-070-94, Phoenix pharmaceuticals, Burlingame, CA) and calcitonin (NBP3-06734, Bio-Techne Ltd, Abingdon, UK) were measured according to the manufacturer’s protocol. Plasma levels of the bone remodeling markers C-terminal telopeptide of collagen type I (CTx-I – RatLaps, Immunodiagnostic Systems Ltd, Boldon, UK) and N-terminal propeptide of type I collagen (P1NP - Rat/mouse P1NP, Immunodiagnostic Systems Ltd) were measured according to the manufacturers’ recommendation. Right femurs were wrapped in saline-soaked gauze and frozen at -20°C until use. Right tibiae were fixed in ethanol-based fixative and stored at 4°C until use. No specific inclusion or exclusion criteria were applied for animal selection. […] Additionally, correct implantation of the cerebral perfusion cannulas for icv-administered animals was verified at necropsy. All animals meeting these criteria were included in the study.
# (§3) The whole-bone strength of right femurs was assessed by 3-point bending in accordance with published guidelines ([34]). Three-point bending strength was measured with a constant span length of 10 mm. Bones were tested in the antero-posterior axis with the posterior surface facing upward, centered on the support and the pressing force was applied vertically to the midshaft of the bone. Each bone was tested fully hydrated and at room temperature with a loading speed of 2 mm.min^-1 until failure with a 500 N load cell on an Instron 5942 device (Instron, Elancourt, France) and the load-displacement curve was recorded at a 100 Hz rate by the Bluehill 3 software (Instron). Ultimate load, ultimate displacement, stiffness and work to fracture were calculated as indicated in ([34]). The yield point was determined as the point at which a regression line that represents a 10% loss in stiffness crosses the load-displacement curve. Post-yield displacement was computed as the displacement between yielding and fracture. Peak bending moment was calculated as one-half the ultimate load multiplied by one-half the span length ([34]). The peak bending moment is related to bone tissue material properties and bone midshaft geometry by the following equation: M=σb×IML/cAP
# [3] = system: ovariectomized BALB/c mice; assay: Tissue material strength of femur (from peak bending moment and geometry); type: in vivo, mouse (BALB/cJRj, female); conditions: 28 days, vs OVX+vehicle, n=8
# Procedure: as §1
# as §3, with “M=σb×IML/cAP […]” for “M=σb×IML/cAP”
# [4] = system: ovariectomized BALB/c mice; assay: Plasma levels of calcitonin and bone remodeling markers (CTx-I, P1NP); type: in vivo, mouse (BALB/cJRj, female); conditions: 28 days, n=8; for Calcitonin (plasma) / P1NP (plasma) / CTx-I (plasma): mean ± SD
# Procedure: as §1, §2
# [5] = system: ovariectomized BALB/c mice; assay: microCT trabecular microstructure, proximal tibia metaphysis; type: in vivo, mouse (BALB/cJRj, female); conditions: 28 days, vs OVX+vehicle, n=8
# Procedure: as §1, §2
# MicroCT analyses were performed at the proximal metaphysis of the right tibia and at the mid-diaphysis of the right femur with a Bruker 1272 microtomograph operated at 70 kV, 140 μA, 1000 ms integration time and imaging in ethanol 70. The isotropic pixel size was fixed at 4 μm, the rotation step at 0.25° and exposure was performed with a 0.5 mm aluminum filter. Hydroxyapatite phantoms (250 mg/cm^3 and 750 mg/cm^3) were used for calibration. Reconstruction of 2D projections was done with the NRecon software (Version 1.6.10.2). For tibial analysis, a trabecular volume of interest was located 0.5 mm below the growth plate at the proximal end and extended 2 mm down. Trabecular bone was separated from cortical bone with an automatic contouring script in CTan software (Version 1.20.8.0). The right femur was used for cortical microarchitecture. The region analyzed (0.5 mm) was centered at the midpoint between the third trochanter and the distal growth plate. Bone was segmented from soft tissue using global thresholding set at 300 mg/cm^3 for trabecular bone and 700 mg/cm^3 for cortical bone. All histomorphometrical parameters were measured with the CTan software according to guidelines and nomenclature proposed by the American Society for Bone and Mineral Research ([31]).
# [6] = icv Ex-4 70 pmol/day, vs OVX+vehicle, p<0.001
substance,measurement,setting,value
exendin-4 [Ex-4],osteoclast differentiation,[1],No significant differences in osteoclast differentiation
same,increase in energy-to-fracture,[2]; [6],8%
same,increase in post-yield displacement,[2]; [6],8%
same,increase in ultimate load,"[2]; icv Ex-4 70 pmol/day, vs OVX+vehicle, p=0.010",7%
same,ultimate load,"[2]; s.c. Ex-4 ~700 pmol/day, OVX, p=0.817",did not prevent the impact of ovariectomy on ultimate load
same,stiffness,"[2]; s.c. Ex-4 ~700 pmol/day, OVX, p=0.984",did not prevent the impact of ovariectomy
same,increase in energy-to-fracture,"[2]; s.c. Ex-4 ~700 pmol/day, vs OVX+vehicle, p=0.020",24%
same,increase in post-yield displacement,"[2]; s.c. Ex-4 ~700 pmol/day, vs OVX+vehicle, p=0.025",18%
same,increase in tissue material strength,"[3]; icv Ex-4 70 pmol/day, p=0.005",9%
same,increase in tissue material strength,"[3]; s.c. Ex-4 ~700 pmol/day, p=0.043",11%
same,Calcitonin (plasma),"[4]; OVX + Ex-4, icv 70 pmol/day",47 ± 10 pg/mL
same,P1NP (plasma),"[4]; OVX + Ex-4, icv 70 pmol/day",28.0 ± 2.2 ng/mL
same,CTx-I (plasma),"[4]; OVX + Ex-4, icv 70 pmol/day, p<0.01 vs. OVX+Vehicle",8.5 ± 1.7 ng/mL
same,P1NP (plasma),"[4]; OVX + Ex-4, s.c. ~700 pmol/day",25.2 ± 4.0 ng/mL
same,Calcitonin (plasma),"[4]; OVX + Ex-4, s.c. ~700 pmol/day, p<0.001 vs. OVX+Vehicle",111 ± 15 pg/mL
same,CTx-I (plasma),"[4]; OVX + Ex-4, s.c. ~700 pmol/day, p<0.05 vs. OVX+Vehicle",11.7 ± 2.0 ng/mL
same,circulating calcitonin levels,"[4]; icv Ex-4 70 pmol/day, OVX",no effects on circulating calcitonin levels
same,change in plasma CTX-I,"[4]; icv Ex-4 70 pmol/day, vs OVX+vehicle, p=0.005",-38%
same,increase in plasma circulating calcitonin,"[4]; s.c. Ex-4 ~700 pmol/day, vs OVX+vehicle, p<0.001",152%
same,change in plasma CTX-I,"[4]; s.c. Ex-4 ~700 pmol/day, vs OVX+vehicle, p=0.012",-20%
same,change in Tb.N,"[5]; icv Ex-4 70 pmol/day, p<0.001",4%
same,change in BV/TV,"[5]; icv Ex-4 70 pmol/day, p=0.005",+6%
same,increase in Tb.N,"[5]; s.c. Ex-4 ~700 pmol/day, p<0.001",6%
same,increase in BV/TV,"[5]; s.c. Ex-4 ~700 pmol/day, p=0.002",11%
